The test system of data set [1] is patients of ALS. Briefly: Efficacy evaluation 6 months after administration based on ALSFRS-R (cumulative differences). The data set is classed as in vivo, human. The note with it: for Suppression rate (rate of "suppressed") in accordance with ALSFRS-R / Assessment based on cumulative differences in accordance with ALSFRS-R: Suppressed (number of cases): i.v. once daily; for Suppression rate (rate of "suppressed") in accordance with ALSFRS-R: 6 administration periods; for Assessment based on cumulative differences in accordance with ALSFRS-R: Suppressed (number of cases): 6 administration periods with drug holidays, suppressed = ratio between cumulative differences 50% or less; for Assessment based on cumulative differences in accordance with ALSFRS-R: No change (number of cases): no change = ratio 100% or more; for Assessment based on cumulative differences in accordance with ALSFRS-R: Slightly suppressed (number of cases): slightly suppressed = ratio more than 50% and less than 100%. As to the method:
1 ampule of “Radicut injection 30 mg” (containing 30 mg of edaravone, produced and marketed by Mitsubishi Pharma Corporation) was intravenously administered once daily to 5 patients of ALS. Single daily administration of the medicament took 30 minutes, and the administration was carried out for 14 consecutive days (the 1st administration period). […] Thereafter, intravenous administration of the medicament was carried out for 10 days (with no administration on Saturdays, Sundays, and national holidays) in the manner described above (the 2nd administration period). Then, treatments similar to those carried out in the 2nd administration period were repeated 4 times (the 3rd to 6th administration periods).
2 ampules of the aforementioned “Radicut injection 30 mg” were intravenously administered once daily to 14 patients of ALS. Single daily administration of the medicament took 60 minutes, and the administration was carried out for 14 consecutive days (the 1st administration period). […] Thereafter, the intravenous administration of the medicament was carried out for 10 days (with no administration on Saturdays, Sundays, and national holidays) in the manner described above (the 2nd administration period). Then, treatments similar to those carried out in the 2nd administration period were repeated 4 times (the 3rd to 6th administration periods).
In accordance with ALSFRS-R, the score at a time point “before the 1st administration period” (*) was determined to be a base point based on comparison of changes “before administration” and changes “during administration.” Then, patients were evaluated in the following manner.
• Difference at each time point before administration=(* before the 1st administration period)−(time point 1, 2 3, 4, 5 or 6 before administration) • Difference at each time point during administration=(time point i, ii, iii, iv, v, or vi before each administration period)−(* before the 1st administration period)
The sum of differences at time points before administration (defined as A)
A=(*−1)+(*−2)+(*−3)+(*−4)+(*−5)+(*−6)
The sum of differences at time points during administration (defined as B)
B=(i−*)+(ii−*)+(iii−*)+(iv−*)+(v−*)+(vi−*)
Averages of the sums of differences obtained in 2) were calculated so as to obtain cumulative differences. (The sums were divided by 6, based on 6 time points 1 to 6 before administration and 6 time points i to vi during administration).
Cumulative difference before administration=A/6
Cumulative difference during administration=B/6
Based on the averages obtained in 3), the ratio of cumulative difference before administration (A/6) to cumulative difference during administration (B/6) was expressed by the following formula:
(Formula)cumulative difference during administration/cumulative difference before administration×100.
Ratio between cumulative differences(%)=(B/6)/(A/6)×100.
Based on the “ratio between cumulative differences” obtained in 4), efficacy evaluation was made in accordance with the following criteria.

Data set [2] deals with patients of ALS. Description: Safety evaluation 6 months after administration, clinical laboratory test. The data set is classed as in vivo, human. As to conditions: for BUN / CK / Creatinine / GOT / GPT / γ-GTP: average of patients of Example 2. As to the method: The patients of Example 2 were each subjected to a clinical laboratory test.
The following components were determined before and after drug administration using a large automated multichannel analyzer (automatic analyzer 7600-020s; Hitachi).

Data set [3] has as its system patients of ALS. Description: Partial pressure of arterial carbon dioxide (PaCO2), blood gas analyzer. The data set is classed as in vivo, human. The method, then:
2 ampules of “Radicut injection 30 mg” (each of which contained 30 mg of edaravone) were intravenously administered once daily to 12 patients of ALS. Single daily administration of the medicament took 60 minutes and it was carried out for 14 consecutive days (the 1st administration period). […] Thereafter, intravenous administration of the medicament was carried out for 10 days (with no administration on Saturdays, Sundays, and national holidays) in the manner described above (the 2nd administration period). Then, treatments similar to those carried out in the 2nd administration period were repeated 4 times (the 3rd to the 6th administration periods).
The % FVC for each patient was determined using a chestac-11 (Chest), as with the case of the 30 mg group. The average rate of decrease of % FVC was 4.5% when comparing % FVC before the 1st drug administration period and that at the end of the 6th drug administration period. In addition, partial pressure of arterial carbon dioxide (PaCO2) was determined. The PaCO2 of each patient was determined using a blood gas analyzer (Bayer 850; Bayer Medical).

Data set [4] deals with patients of ALS. Briefly: Efficacy evaluation 6 months after administration based on % FVC (percent predicted forced vital capacity). The data set is classed as in vivo, human. The note with it: for average rate of decrease of % FVC: before 1st administration period vs end of 6th administration period. The method, then:
The term “% FVC” stands for percent predicted forced vital capacity; it is generally used as an index in a method for objectively evaluating respiratory function in ALS patients (ALS treatment guidelines 2002). In addition, in the case of ALS patients (placebo group), the rate of decrease of % FVC for during 6 months is 13.8% (The BDNF Study Group (Phase III), Neurology, 52, 1427 (1999)).
1 ampule of the aforementioned “Radicut injection 30 mg” was intravenously administered once daily to 4 patients of ALS. Single daily administration of the medicament took 30 minutes, and it was carried out for 14 consecutive days (the 1st administration period). […] Thereafter, intravenous administration of the medicament was carried out for 10 days (with no administration on Saturdays, Sundays, and national holidays) in the manner described above (the 2nd administration period). Then, treatments similar to those carried out in the 2nd administration period were repeated 4 times (the 3rd to the 6th administration periods).
The % FVC for each patient was determined using a chestac-11 (Chest). The average rate of decrease of % FVC was 9.3% when comparing % FVC before the 1st drug administration period and that at the end of the 6th drug administration period.
2 ampules of “Radicut injection 30 mg” (each of which contained 30 mg of edaravone) were intravenously administered once daily to 12 patients of ALS. Single daily administration of the medicament took 60 minutes and it was carried out for 14 consecutive days (the 1st administration period). […] Thereafter, intravenous administration of the medicament was carried out for 10 days (with no administration on Saturdays, Sundays, and national holidays) in the manner described above (the 2nd administration period). […]
The % FVC for each patient was determined using a chestac-11 (Chest), as with the case of the 30 mg group. […] In addition, partial pressure of arterial carbon dioxide (PaCO2) was determined. The PaCO2 of each patient was determined using a blood gas analyzer (Bayer 850; Bayer Medical).

The test system of data set [5] is ALS. The note with it: Non-Patent Documents 1-5; cited from earlier work.
Where [6] appears, read: before administration (baseline).
[7] abbreviates: overall conclusion of Example 2.

In the case of `CC1=NN(c2ccccc2)C(=O)C1` [Radicut injection 30 mg, 3-methyl-1-phenyl-2-pyrazolin-5-one], in data set [1] (30 mg group (5 ALS patients)), the “Suppression rate (rate of "suppressed") in accordance with ALSFRS-R” value worked out at 20%, the “Assessment based on cumulative differences in accordance with ALSFRS-R: Suppressed (number of cases)” value was determined as 1, the “Assessment based on cumulative differences in accordance with ALSFRS-R: No change (number of cases)” value was determined as 1 and the “Assessment based on cumulative differences in accordance with ALSFRS-R: Slightly suppressed (number of cases)” value came to 3. In data set [1] (60 mg group (14 ALS patients)), the “Suppression rate (rate of "suppressed") in accordance with ALSFRS-R” value was 50%, the “Assessment based on cumulative differences in accordance with ALSFRS-R: Suppressed (number of cases)” value was 7, the “Assessment based on cumulative differences in accordance with ALSFRS-R: No change (number of cases)” value was determined as 6 and the “Assessment based on cumulative differences in accordance with ALSFRS-R: Slightly suppressed (number of cases)” value was found to be 1. For the same molecule, in data set [2] (after administration), the BUN came to 14.3 mg/dL, the CK came to 135.6 IU/L, the Creatinine came to 0.6 mg/dL and the GOT turned out to be 19.1 IU/L. Besides, in data set [2] (after administration), the GPT is 19.6 IU/L and the γ-GTP turned out to be 25.3 IU/L. In data set [2] (setting [6]), the BUN is 14.1 mg/dL, the CK is 165.3 IU/L, the Creatinine worked out at 0.6 mg/dL and the GOT is 21.3 IU/L. Also, in data set [2] (setting [6]), the GPT came out at 22.2 IU/L and the γ-GTP came to 31.6 IU/L. Moreover, the “clinical laboratory values after administration (safety)” value in data set [2] (patients of Example 2, 6 months after administration) was “did not increase to abnormal levels”. Moreover, the “PaCO2 values before the 1st administration period and after the end of the 6th administration period” value in data set [3] (60 mg group (12 ALS patients)) was “almost the same”. Further, the “increase of PaCO2 in ALS patients” value in data set [3] (setting [7]) was “significantly suppressed”. In addition, the “average rate of decrease of % FVC” value in data set [4] (30 mg group (4 ALS patients)) was 9.3%. Further, in data set [4] (60 mg group (12 ALS patients)), the “average rate of decrease of % FVC” value is reported as 4.5%. The “decrease of % FVC in ALS patients” value in data set [4] (setting [7]) is listed as “significantly suppressed”.

For the molecule `NCC1(CC(=O)O)CCCCC1` [gabapentin], the “prevention of decreased respiratory function in ALS” value in data set [5] is “cannot prevent decreased respiratory function”.

As to “RhIGF-1: medicament examined as potential medicament for treating ALS”, the “prevention of decreased respiratory function in ALS” value in data set [5] is given as “cannot prevent decreased respiratory function”.

As to `CC(=O)N[C@@H](CS)C(=O)O` [N-acetylcysteine], the “prevention of decreased respiratory function in ALS” value in data set [5] was “cannot prevent decreased respiratory function”.

B1: BDNF: medicament examined as potential medicament for treating ALS (protein, UniProt P23560 19-247, looked up)
Neurotrophic factor BDNF …: APMKEANIRGQGGLAYPGVRTHGTLESVNGPKAGSRGLTSLADTFEHVIEELLDEDQKVRPNEENNKDADLYTSRVMLSSQVPLEPPLLFLLEEYKNYLDAANMSMRVRRHSDPARRGELSVCDSISEWVTAADKKTAVDMSGGTVTVLEKVPVSKGQLKQYFYETKCNPMGYTKEGCRGIDKRHWNSQCRTTQSYVRALTMDSKKRIGWRFIRIDTSCVCTLTIKRGR
For B1, the “prevention of decreased respiratory function in ALS” value in data set [5] is given as “cannot prevent decreased respiratory function”.

Values taken from patent US20080161378A1, “Novel Therapeutic Agent For Amyotrophic Lateral Sclerosis (Als) or Diseases Caused by Als” (priority 2004, published 2008).
